The values below come from PubChem BioAssay (NCI).

Among the test systems are PC-3 prostate; MOLT-4 leukemia; NCI/ADR-RES ovarian; KM12 colon; SNB-19 CNS; CCRF-CEM leukemia; MDA-N; MALME-3M melanoma; OVCAR-5 ovarian; MDA-MB-231 breast; SF-295 CNS; NCI-H23 lung; NCI-H522 lung; SK-OV-3 ovarian; NCI-H226 lung; HCC-2998 colon; HL-60(TB) leukemia; OVCAR-4 ovarian; ACHN renal; SR leukemia.
Assay in all cases: growth of human tumour cells (NCI), 48 h

Structures are written as SMILES.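 Interpolation was linear, between the two tested concentrations surrounding the appropriate level; five concentrations were tested over 48 hours in 96-well plates. At the TGI there is no net growth.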 Where only a bound is given, the exact number is not on record here.

Take `O=C(O)C1CCCN(CCc2c[nH]c3ccccc23)C1` (configuration not stated): the TGI in the test with PC-3 prostate, with MOLT-4 leukemia, in the test with NCI/ADR-RES ovarian, in the test on KM12 colon, in the test with SNB-19 CNS and in the test with CCRF-CEM leukemia was > 100 µM in each case. Besides, the TGI in the test on MDA-N, in the test on MALME-3M melanoma, in the test on OVCAR-5 ovarian, with MDA-MB-231 breast, in the test with SF-295 CNS and with NCI-H23 lung was > 100 µM in each case. For the same compound, the TGI with NCI-H522 lung, with SK-OV-3 ovarian, in the test with NCI-H226 lung, with HCC-2998 colon, in the test with HL-60(TB) leukemia and in the test with OVCAR-4 ovarian was > 100 µM in each case. Moreover, the TGI in the test on ACHN renal is > 100 µM.
In the case of `CC1(C)C2CCC(CN)(C2)C1N` (configuration not stated), the TGI in the test with PC-3 prostate, in the test on MOLT-4 leukemia, in the test with NCI/ADR-RES ovarian, in the test with KM12 colon, in the test with SNB-19 CNS and in the test with CCRF-CEM leukemia was > 100 µM in each case. In addition, the TGI in the test on MDA-N, in the test with MALME-3M melanoma, with OVCAR-5 ovarian, in the test on MDA-MB-231 breast, with SF-295 CNS and in the test with NCI-H23 lung was > 100 µM in each case. Further, the TGI in the test on SK-OV-3 ovarian, in the test on NCI-H226 lung, in the test with HCC-2998 colon, with SR leukemia, with HL-60(TB) leukemia and in the test on OVCAR-4 ovarian was > 100 µM each time. For the same compound, the TGI in the test on ACHN renal was > 100 µM.
On to `CCOC(=O)c1oc2cc3c(c4c2c1-c1ccccc1N4C)C=CC(C)(C)O3`, for which the TGI in the test on PC-3 prostate is > 55.3 µM; with MOLT-4 leukemia, > 100 µM; with NCI/ADR-RES ovarian it was 27.6 µM; in the test with KM12 colon, > 80.4 µM; in the test on SNB-19 CNS it was > 54.9 µM; in the test with CCRF-CEM leukemia, > 100 µM. The TGI in the test on MDA-N was > 100 µM; with MALME-3M melanoma, 54.3 µM; with OVCAR-5 ovarian, > 100 µM; with MDA-MB-231 breast, > 100 µM; in the test with SF-295 CNS it was 30.8 µM; with NCI-H23 lung, > 67.4 µM. The TGI with NCI-H522 lung is 42.6 µM; with SK-OV-3 ovarian, 69.4 µM; with NCI-H226 lung, 48.9 µM; with HCC-2998 colon, > 100 µM; in the test on HL-60(TB) leukemia, > 100 µM; with OVCAR-4 ovarian it was > 100 µM. Also, the TGI with ACHN renal came to 30.5 µM.
Consider `CCOC(=O)c1cc2c([nH]1)c(O)cc1c2ccn1Cc1ccccc1`, for which the TGI with PC-3 prostate was 34.2 µM; in the test with MOLT-4 leukemia, 14.1 µM; in the test on NCI/ADR-RES ovarian, 38.5 µM; in the test with KM12 colon, 24.8 µM; in the test with SNB-19 CNS, 28.2 µM; in the test with CCRF-CEM leukemia it was 39.9 µM. The TGI is 29.5 µM with MDA-N; 36.8 µM in the test with MALME-3M melanoma; 41.4 µM in the test on OVCAR-5 ovarian; 49.1 µM in the test on MDA-MB-231 breast; 31.6 µM in the test with SF-295 CNS; 28.1 µM with NCI-H23 lung. The TGI stood at 39.5 µM in the test with SK-OV-3 ovarian; 36.9 µM with NCI-H226 lung; 37 µM in the test on HCC-2998 colon; 16.9 µM in the test with SR leukemia; 33.9 µM in the test on HL-60(TB) leukemia; 35.4 µM in the test with OVCAR-4 ovarian.
Consider `COc1ccc2c(c1)-c1nc(=S)n(CCCN(C)C)c3ccc([N+](=O)[O-])c(c13)N2`, for which the TGI with PC-3 prostate amounted to 17.4 µM; in the test on MOLT-4 leukemia it was 2.15 µM; in the test on NCI/ADR-RES ovarian, 9.23 µM; in the test on KM12 colon, 6.31 µM; with SNB-19 CNS, 11 µM; in the test with CCRF-CEM leukemia, 1.41 µM. Besides, the TGI in the test on MDA-N amounted to 2.2 µM; in the test on MALME-3M melanoma, 2.33 µM; with OVCAR-5 ovarian, 3.62 µM; in the test on MDA-MB-231 breast, 2.1 µM; in the test with SF-295 CNS, 21.2 µM; with NCI-H23 lung it was 4.31 µM. Also, the TGI in the test on NCI-H522 lung came out at 2.98 µM; in the test on SK-OV-3 ovarian, 19.4 µM; in the test on NCI-H226 lung, 24.4 µM; with HCC-2998 colon it was 18.6 µM; in the test on HL-60(TB) leukemia, 1.64 µM; in the test on OVCAR-4 ovarian, 2.52 µM. In the test on ACHN renal, this compound yielded a TGI of 14.4 µM.
As for `COC(=O)C1=C(O)C(C(=O)OC)[C@]2(O)[C@H](C(=O)OC)[C@H]1C[C@@H](c1ccc(Cl)cc1)[C@H]2C(=O)OC` (some centres not stated), the TGI is 18.8 µM with PC-3 prostate; > 100 µM in the test on MOLT-4 leukemia; > 100 µM in the test on NCI/ADR-RES ovarian; 46.6 µM in the test with KM12 colon; 29.8 µM in the test on SNB-19 CNS; > 100 µM with CCRF-CEM leukemia. In addition, the TGI in the test with MDA-N is 22.5 µM; in the test with MALME-3M melanoma it was 25.1 µM; in the test with OVCAR-5 ovarian, 40.3 µM; with MDA-MB-231 breast, 37.6 µM; with SF-295 CNS, 20.6 µM; in the test on NCI-H23 lung, 22.9 µM. For the same compound, the TGI with SK-OV-3 ovarian is 23.4 µM; in the test on NCI-H226 lung, 38.2 µM; with HCC-2998 colon it was 22 µM; in the test on SR leukemia, > 100 µM; in the test with HL-60(TB) leukemia, 12.9 µM; in the test with OVCAR-4 ovarian, > 100 µM. This compound gave a TGI in the test with ACHN renal of 39.9 µM.
`O=C(O)CCC(=O)Nc1ccc2ccccc2c1`: the TGI with PC-3 prostate, in the test with MOLT-4 leukemia, with NCI/ADR-RES ovarian, in the test with KM12 colon, with SNB-19 CNS and with CCRF-CEM leukemia was > 100 µM each time. Moreover, the TGI in the test with MDA-N, in the test on MALME-3M melanoma, in the test with OVCAR-5 ovarian, with MDA-MB-231 breast, in the test on SF-295 CNS and with NCI-H23 lung was > 100 µM each time. In addition, the TGI in the test on NCI-H522 lung, in the test with SK-OV-3 ovarian, in the test with NCI-H226 lung, in the test on HCC-2998 colon, with HL-60(TB) leukemia and in the test with OVCAR-4 ovarian was > 100 µM each time. Also, the TGI in the test on ACHN renal is > 100 µM.
